Values quoted from earlier work in publication PMC6332596 (Journal of Hematology & Oncology, 2019).

Key:
Design in all cases: method as in PMID 28004478
Conditions in all cases: cited from earlier work
CSF-1R = system: CSF-1R
VEGFR3 = system: VEGFR3
[1] = system: off-target non-receptor kinases, proteins, GPCR, and ion channels
Aurora B = system: Aurora B
VEGFR1 = system: VEGFR1
c-Kit = system: c-Kit

**Q.** Which IC50 (CSF-1R) does the source give for `COc1ccc2c(Oc3ccc4c(C(=O)Nc5ccccc5N)cccc4c3)ccnc2c1` [chiauranib] here?
**A.** single-digit nanomolar range

**Q.** And the IC50 (VEGFR3)?
**A.** single-digit nanomolar range

**Q.** What about the activity on off-targets [1] of the same compound?
**A.** little activity

**Q.** What about the IC50 (Aurora B) of the same compound?
**A.** single-digit nanomolar range

**Q.** What about the IC50 (VEGFR1) of the same compound?
**A.** single-digit nanomolar range

**Q.** What about the IC50 (c-Kit) of the same compound?
**A.** single-digit nanomolar range
